{"source": "patent US12286418B2", "about": "“Compounds and methods for treating or preventing bacterial infections” (priority 2019, dated 2025)", "key": {"OXA-48 [1]": {"biological_target": "T1, OXA-48 (Klebsiella pneumoniae, UniProt Q6XEC0)", "T1 sequence (Q6XEC0 23-265, looked up)": "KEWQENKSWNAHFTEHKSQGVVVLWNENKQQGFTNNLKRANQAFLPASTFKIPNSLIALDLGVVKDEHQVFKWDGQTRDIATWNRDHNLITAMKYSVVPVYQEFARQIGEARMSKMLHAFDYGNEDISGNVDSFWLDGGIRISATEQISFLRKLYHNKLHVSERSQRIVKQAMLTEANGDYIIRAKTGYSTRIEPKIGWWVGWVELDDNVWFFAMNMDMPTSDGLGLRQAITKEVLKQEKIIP", "conditions": "non-β-lactam inhibitors; cited from earlier work"}, "OXA-48 [2]": {"biological_target": "T1, OXA-48", "assay": "Surface plasmon resonance binding to immobilized 6x-His-OXA-48", "design": "His-tag (N, cleaved yes); made in house; host or cells: E. coli BL21(DE3), pET28a", "conditions": "SPR, immobilized His-OXA-48, positive control", "procedure": "6×-His-OXA-48 was capture/amine-coupled on a Ni-NTA Chip at a density of ˜5000 RU. Running buffer was 10 mM HEPES pH 7.4, 150 NaCl, 50 mM NaHCO3, 0.005% Tween-20, 2% DMSO. Concentration gradients of each compound were created from 0-15 μM using OneStep Injections in at least triplicates for meropenem and CDD-97.\n(§1) Synthon-derivatives were created, without DNA tags, based on high OXA-48 enrichment and minimal NTC enrichment. The activity of these derivatives was assessed using inhibition assays with purified OXA-48. Compounds were tested for the ability to inhibit OXA-48 from hydrolyzing nitrocefin, a chromogenic β-lactam substrate routinely used in β-lactamase inhibition assays. Nitrocefin contains a conjugated ring system that is readily hydrolyzed and produces a visible color shift from yellow to red upon hydrolysis (O'Callaghan, et al., 1972, Antimicrob. Agents Chemother. 1:283-288). The rate of nitrocefin hydrolysis in the presence of a constant amount of OXA-48 and increasing concentrations of a given compound of interest was monitored at 482 nm. These rates were plotted against compound concentration to determine the inhibition constant (Ki) against OXA-48. Compounds with promising activity were also assessed for binding using surface plasmon resonance (SPR). SPR was performed using 6×-His-OXA-48 enzyme that was amine-coupled on a Ni-NTA Chip. Meropenem, which covalently binds and inhibits OXA-48, was used as a positive control."}, "OXA-58": {"biological_target": "T2, OXA-58 (Acinetobacter baumannii, UniProt Q2TR58)", "T2 construct": "His-tag (N, cleaved yes); made in house; host or cells: E. coli BL21 (DE3), pET28a", "T2 sequence (Q2TR58 19-280)": "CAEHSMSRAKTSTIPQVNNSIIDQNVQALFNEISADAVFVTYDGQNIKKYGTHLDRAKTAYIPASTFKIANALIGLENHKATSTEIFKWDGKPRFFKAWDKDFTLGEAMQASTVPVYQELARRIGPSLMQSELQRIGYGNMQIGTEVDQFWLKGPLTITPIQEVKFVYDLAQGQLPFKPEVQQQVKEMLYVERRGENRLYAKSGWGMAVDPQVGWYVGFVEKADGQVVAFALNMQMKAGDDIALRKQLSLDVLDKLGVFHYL", "assay": "biochemical", "procedure": "(§2) For each of the OXA enzymes, the nitrocefin steady states were determined so nitrocefin could be used as a reporter in the inhibition assays. Nitrocefin (MilliporeSigma, Burlington, MA) was kept at −20° C. upon purchase and thawed at room temperature and diluted in DMSO for usage. DMSO stocks were aliquoted and kept at −20° C. for only up to 2 weeks after dissolving. To determine the steady state kinetic parameters for nitrocefin hydrolysis, reactions were monitored on a DU-800 spectrophotometer (Beckman Coulter, Brea, CA) at 25° C. Enzyme and substrate samples were diluted using 50 mM HEPES, pH 7.5, 15 mM NaHCO3, and 0.02% Tween-20. Hydrolyzed nitrocefin was tracked at 482 nm. For a single experiment, a series of at least 5 nitrocefin concentrations was tested against the given enzyme. […] The Km values determined for each enzyme was used to determine the amount of nitrocefin to use in the inhibition assays.\n(§3) The inhibition activity for compounds were assessed using inhibition assays with nitrocefin as the reporter. […] Compounds were tested at up to 500-4000 μM depending on solubility and absorbance output. The initial velocity of nitrocefin hydrolysis was monitored using a Tecan M200 Infinite Pro plate reader (Tecan, Mannedorf, Switzerland). […] Ligand efficiency (LE) was calculated using a previously reported equation: LE=1.37 (pKi)/(# non-Hydrogen atoms). […]"}, "OXA-24": {"biological_target": "T3, OXA-24 (Acinetobacter baumannii, UniProt Q8RLA6)", "T3 construct": "His-tag (N, cleaved yes); made in house; host or cells: E. coli BL21 (DE3), pET28a", "T3 sequence (Q8RLA6 entry or part of it)": "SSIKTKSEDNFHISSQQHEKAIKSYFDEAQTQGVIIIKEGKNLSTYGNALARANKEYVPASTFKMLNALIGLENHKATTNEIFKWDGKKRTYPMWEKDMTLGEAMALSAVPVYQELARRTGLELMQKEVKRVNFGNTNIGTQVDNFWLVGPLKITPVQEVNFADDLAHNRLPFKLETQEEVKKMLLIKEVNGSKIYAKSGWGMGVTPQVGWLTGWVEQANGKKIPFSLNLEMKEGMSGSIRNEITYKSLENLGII", "assay": "Example 8 inhibition assay with nitrocefin (aromatic acids): OXA-24", "assay_type": "biochemical", "procedure": "as §2, §3"}, "OXA-48 [3]": {"biological_target": "T1, OXA-48", "assay": "Example 8 inhibition assay with nitrocefin (aromatic acids): OXA-48", "assay_type": "biochemical", "design": "His-tag (N, cleaved yes); made in house; host or cells: E. coli BL21(DE3), pET28a", "procedure": "For each of the OXA enzymes, the nitrocefin steady states were determined so nitrocefin could be used as a reporter in the inhibition assays. Nitrocefin (MilliporeSigma, Burlington, MA) was kept at −20° C. upon purchase and thawed at room temperature and diluted in DMSO for usage. DMSO stocks were aliquoted and kept at −20° C. for only up to 2 weeks after dissolving. To determine the steady state kinetic parameters for nitrocefin hydrolysis, reactions were monitored on a DU-800 spectrophotometer (Beckman Coulter, Brea, CA) at 25° C. Enzyme and substrate samples were diluted using 50 mM HEPES, pH 7.5, 15 mM NaHCO3, and 0.02% Tween-20. Hydrolyzed nitrocefin was tracked at 482 nm. For a single experiment, a series of at least 5 nitrocefin concentrations was tested against the given enzyme. Each substrate concentration was tested in duplicate and initial velocities were averaged (for a given concentration) and fit the Michaelis-Menten equation. The experiment was repeated for rigor. The Km values determined for each enzyme was used to determine the amount of nitrocefin to use in the inhibition assays.\nThe inhibition activity for compounds were assessed using inhibition assays with nitrocefin as the reporter. A constant concentration of nitrocefin and the given enzyme was used with increasing concentrations of the compound in question. […] The enzymes OXA-24, OXA-48 and OXA-58 were used in their corresponding inhibition experiments at a constant concentration of 0.2 nM, 0.2 nM and 0.1 nM respectively. Compounds were tested at up to 500-4000 μM depending on solubility and absorbance output. The initial velocity of nitrocefin hydrolysis was monitored using a Tecan M200 Infinite Pro plate reader (Tecan, Mannedorf, Switzerland). The velocities at various compound concentrations were fit to the Morrison Tight Binding equation to determine the Ki value for the given fragment with the given OXA enzyme. Ligand efficiency (LE) was calculated using a previously reported equation: LE=1.37 (pKi)/(# non-Hydrogen atoms). […]"}, "OXA-48 [4]": {"biological_target": "T1, OXA-48", "assay": "OXA-48 inhibition assay using nitrocefin as reporter", "assay_type": "biochemical", "design": "His-tag (N, cleaved yes); made in house; host or cells: E. coli BL21(DE3), pET28a", "conditions": "for Ki: purified OXA-48, nitrocefin hydrolysis, Morrison fit; for potency/activity against OXA-48 in words: purified OXA-48, compared with CDD-97 where a derivative", "procedure": "Nitrocefin, a chromogenic β-lactam substrate, was used as a reporter in all inhibition assays with the various OXA enzymes and various compounds. Nitrocefin is not stable in aqueous solution long-term. For these assays, nitrocefin stocks were prepared in DMSO, stored at −20° C. and used within 2 weeks of dissolving. To avoid freeze-thawing, fresh stocks were always used. The Km of nitrocefin was determined prior to inhibition assays by performing steady state kinetics. Assays were performed using a DU800 spectrophotometer at room temperature in 50 mM HEPES pH 7.5, 15 mM NaHCO3, and 0.02% tween 20 buffer. Hydrolyzed nitrocefin was detected at 482 nm. For a single experiment, a series of at least 5 nitrocefin concentrations were tested against the given enzyme in duplicate and the initial velocities were measured and fit to the Michaelis-Menten equation. Experiments were repeated twice, and error reported is the standard error of the mean.\nCompounds were tested for inhibition of a given OXA enzyme from hydrolyzing nitrocefin using a Tecan plate reader. […] A control with no compound was included in each run. For each compound concentration, the velocity of nitrocefin hydrolysis was determined at 482 nm and fit to the Morrison equation. […] The average Ki of separate experiments, each of which consisted of duplicate runs, is reported and error was quantified as the standard deviation.\nas §1, with “The” for “Synthon-derivatives were created, without DNA tags, based on high OXA-48 enrichment and minimal NTC enrichment. The”, “Compounds with promising activity were also assessed for binding using surface plasmon resonance (SPR).” left out"}}, "data": [{"compound": "O=C(O)C[C@@H]1CC[C@H](NC(=O)Cc2cccs2)B(O)O1", "note": "[vaborbactam]", "values": [{"measurement": "efficacy against OXA-48 in words", "setting": "OXA-48 [1]", "result": "ineffective against OXA-48"}]}, {"compound": "O=C(NC1CCNCC1)[C@@H]1CC[C@@H]2CN1C(=O)N2OS(=O)(=O)O", "note": "[relebactam]", "values": [{"measurement": "efficacy against OXA-48 in words", "setting": "OXA-48 [1]", "result": "ineffective against OXA-48"}]}, {"compound": "C[C@@H](O)[C@H]1C(=O)N2C(C(=O)O)=C(S[C@@H]3CN[C@H](C(=O)N(C)C)C3)[C@H](C)[C@H]12", "note": "[Meropenem, reference compound]", "values": [{"measurement": "Kd", "setting": "OXA-48 [2]", "result": "423.5 ± 0.2", "unit": "nM"}]}, {"compound": "O=C(O)c1ccccc1O", "note": "[Compound 1.1]", "values": [{"measurement": "Ki", "setting": "OXA-58", "result": "379 ± 44", "unit": "µM"}, {"measurement": "inhibition activity against OXA-24 in words", "setting": "OXA-24", "result": "low millimolar activity"}, {"measurement": "inhibition activity against OXA-48 in words", "setting": "OXA-48 [3]", "result": "low millimolar activity"}]}, {"compound": "O=C(O)c1ccc(-c2ccc(C(=O)O)cc2)cc1", "note": "[Compound 2.1]", "values": [{"measurement": "ligand efficiency (LE) for OXA-48 inhibition", "setting": "OXA-48 [3]; LE=1.37 (pKi)/(# non-Hydrogen atoms)", "result": 0.36}, {"measurement": "Ki", "setting": "OXA-48 [3]; OXA-48 0.2 nM, 25 μM nitrocefin", "result": "17.2 ± 1", "unit": "µM"}]}, {"compound": "CCOc1ccccc1CCNc1ncnc(N2CCC(C(=O)O)CC2)n1", "note": "[CDD-375, 1-(4-((2-ethoxyphenethyl)amino)-1,3,5-triazin-2-yl)piperidine-4-carboxylic acid]", "values": [{"measurement": "Ki", "setting": "OXA-48 [4]", "result": "7.51 ± 0.23", "unit": "µM"}]}, {"compound": "CCOc1ccccc1N1CCN(c2ncnc(N3CC(F)(C(=O)O)C3)n2)CC1", "note": "[CDD-96, 1-(4-(4-(2-ethoxyphenyl)piperazin-1-yl)-1,3,5-triazin-2-yl)-3-fluoroazetidine-3-carboxylic acid]", "values": [{"measurement": "potency/activity against OXA-48 in words", "setting": "OXA-48 [4]", "result": "potency was low"}]}, {"compound": "CCOc1ccccc1N1CCN(c2ncnc(N3CC(F)(C(=O)NC)C3)n2)CC1", "note": "[CDD-147, 1-(4-(4-(2-ethoxyphenyl)piperazin-1-yl)-1,3,5-triazin-2-yl)-3-fluoro-N-methylazetidine-3-carboxamide]", "values": [{"measurement": "potency/activity against OXA-48 in words", "setting": "OXA-48 [4]", "result": "potency was low"}, {"measurement": "Ki", "setting": "OXA-48 [4]", "result": "> 50", "unit": "µM"}]}, {"compound": "CN1CCN(c2ncnc(N3CCC(C(=O)O)CC3)n2)CC1", "note": "[CDD-187, 1-(4-(4-methylpiperazin-1-yl)-1,3,5-triazin-2-yl)piperidine-4-carboxylic acid]", "values": [{"measurement": "Ki", "setting": "OXA-48 [4]", "result": "> 50", "unit": "µM"}]}, {"compound": "CS(=O)(=O)c1ccccc1N1CCN(c2ncnc(N3CCC(C(=O)O)CC3)n2)CC1", "note": "[CDD-181, 1-(4-(4-(2-(methylsulfonyl)phenyl)piperazin-1-yl)-1,3,5-triazin-2-yl)piperidine-4-carboxylic acid]", "values": [{"measurement": "Ki", "setting": "OXA-48 [4]", "result": "3.23 ± 0.39", "unit": "µM"}]}, {"compound": "O=C(O)C1CCN(c2ncnc(N3CCN(c4ccccc4C(F)(F)F)CC3)n2)CC1", "note": "[CDD-180, 1-(4-(4-(2-(trifluoromethyl)phenyl)piperazin-1-yl)-1,3,5-triazin-2-yl)piperidine-4-carboxylic acid]", "values": [{"measurement": "Ki", "setting": "OXA-48 [4]", "result": 1.7, "unit": "µM"}]}]}
